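These data come from cells grown in 96-well plates and exposed to compound for 48 hours at five concentrations. GI50 marks 50% less growth. TGI: total growth inhibition.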
Columns and labels:
Assay in all cases: growth of human tumour cells (NCI), 48 h
SR leukemia = test system: SR leukemia
M19-MEL melanoma = test system: M19-MEL melanoma
IGROV1 ovarian = test system: IGROV1 ovarian
SK-MEL-2 melanoma = test system: SK-MEL-2 melanoma
TK-10 renal = test system: TK-10 renal
RXF 393 renal = test system: RXF 393 renal
HCT-116 colon = test system: HCT-116 colon
HOP-18 NSCLC = test system: HOP-18 NSCLC
HCT-15 colon = test system: HCT-15 colon
SF-268 CNS = test system: SF-268 CNS

SMILES | TGI (SR leukemia) [µM] | TGI (M19-MEL melanoma) [µM] | TGI (IGROV1 ovarian) [µM] | TGI (SK-MEL-2 melanoma) [µM] | TGI (TK-10 renal) [µM] | TGI (RXF 393 renal) [µM] | TGI (HCT-116 colon) [µM] | TGI (HOP-18 NSCLC) [µM] | TGI (HCT-15 colon) [µM] | TGI (SF-268 CNS) [µM] | GI50 (SR leukemia) [µM] | GI50 (M19-MEL melanoma) [µM] | GI50 (IGROV1 ovarian) [µM] | GI50 (SK-MEL-2 melanoma) [µM] | GI50 (TK-10 renal) [µM] | GI50 (RXF 393 renal) [µM] | GI50 (HCT-116 colon) [µM] | GI50 (HOP-18 NSCLC) [µM] | GI50 (HCT-15 colon) [µM] | GI50 (SF-268 CNS) [µM]
COc1ccc(/C(Cl)=C(\C=O)c2ccc([N+](=O)[O-])cc2)cc1OC | 83.3 | 24.3 | 38.6 | > 77.1 | > 47.3 | 19.2 | 24.9 | 23.7 | 23.7 | 29.4 | – | – | – | – | – | – | – | – | – | –
Cc1ccc(-c2nc(SCC(=O)O)n[nH]2)cc1 | > 100 | > 100 | > 100 | > 100 | > 100 | – | > 100 | > 100 | > 100 | > 100 | – | – | – | – | – | – | – | – | – | –
Cc1ccc(NC(=O)c2cccc([N+](=O)[O-])c2O)c([N+](=O)[O-])c1 | – | 27.6 | 44.9 | – | – | 23.6 | 30.3 | 91.1 | 31.8 | 54.9 | – | – | – | – | – | – | – | – | – | –
CCC[CH2][Sn]([CH2]CCC)([O]C(=O)c1cc(F)cc(F)c1)[O]C(=O)c1cc(F)cc(F)c1 | 3.29 | 1.74 | 2.94 | 1.24 | 2.61 | 1.33 | 2.54 | 3.33 | 2.41 | 2.34 | 0.459 | 0.514 | 1.55 | 0.298 | 1.3 | 0.349 | 1.27 | 1.91 | 1.17 | 1.09
COC1(OC)CC2C=C(S(=O)(=O)c3ccccc3)C1N(Cc1ccccc1)C2=O (stereo not drawn) | > 100 | > 100 | > 100 | – | 66.4 | 49.8 | 30 | > 100 | – | > 100 | – | – | – | – | – | – | – | – | – | –
CCOC(=O)C(=O)Nc1ccc(C)cc1C | > 100 | > 100 | > 100 | > 100 | > 100 | > 100 | > 100 | > 100 | > 100 | > 100 | – | – | – | – | – | – | – | – | – | –
CSC(C1c2ccccc2N(C)C2=NC(=O)N(C)C(=O)C21Cl)S(=O)(=O)c1ccc(C)cc1 (stereo not drawn) | – | > 100 | > 100 | > 100 | > 100 | – | > 100 | > 100 | > 100 | > 100 | – | – | – | – | – | – | – | – | – | –
COc1cc2c(cc1OC)-c1cc3cc(OC)c(OC)cc3n1CC2 | > 100 | > 100 | > 100 | > 100 | 51.9 | – | > 100 | – | – | > 100 | – | – | – | – | – | – | – | – | – | –
Cn1c2c(c3ccccc31)C1CCCCC1C1C(=O)NC(=O)C21 (stereo not drawn) | > 100 | > 100 | > 100 | – | > 100 | > 100 | – | > 100 | > 100 | > 100 | – | – | – | – | – | – | – | – | – | –
COc1ccc(/C(=N/NC(=O)NN)C(c2ccc(OC)cc2)C2(O)CNc3c(Cl)cc(Cl)cc32)cc1 (stereo not drawn) | – | > 100 | > 100 | > 100 | > 100 | > 100 | > 100 | > 100 | > 100 | > 100 | – | – | – | – | – | – | – | – | – | –
Brc1ccc(-c2nnc(-c3nn(-c4ccccc4)c4nc5ccccc5nc34)o2)cc1 | > 100 | – | > 100 | > 100 | > 100 | > 100 | > 100 | > 100 | – | > 100 | – | – | – | – | – | – | – | – | – | –
CC(=O)OC1CC(n2cc(F)c(=O)[nH]c2=O)OC1CO (stereo not drawn) | > 100 | > 100 | > 100 | > 100 | > 100 | > 100 | > 100 | > 100 | > 100 | > 73.8 | – | – | – | – | – | – | – | – | – | –
COc1ccc(/C=C2\CCCCC2=O)cc1 | – | > 100 | > 100 | – | > 100 | – | > 100 | > 100 | > 100 | > 100 | – | – | – | – | – | – | – | – | – | –
O=S(O)CCCCCSSCCCCSSCCCCCS(=O)O | – | > 100 | > 100 | > 100 | > 100 | > 100 | – | > 100 | > 100 | > 100 | – | – | – | – | – | – | – | – | – | –
CC1C[C@H](OC(N)=O)C(C)CC1=O (stereo partly drawn) | – | > 100 | > 100 | > 100 | > 100 | > 100 | > 100 | > 100 | > 100 | > 100 | – | – | – | – | – | – | – | – | – | –
CN(C)c1ccc(N=Cc2c([O-])ccc3ccccc23)cc1.[C-]#[O+].[C-]#[O+].[Ir] | 44.1 | 30.9 | 65 | – | 53.3 | – | 32.1 | 27.6 | – | 50.6 | 15.4 | 16.2 | 21.1 | – | 22.5 | – | 17.7 | 13 | – | 22.5
CC(C)[C@@]12C[C@@H](OC(=O)[C@H]3CO3)[C@@](C)(O1)[C@@H]1CC[C@@H](C)[C@H]1[C@@H]2OC(=O)/C=C/c1ccccc1 | > 100 | – | > 83.4 | 47.7 | > 100 | 17.8 | > 100 | – | > 100 | > 81.2 | 24.7 | – | 23.7 | 16.7 | 33.9 | 1.3 | 9.46 | – | 11.1 | 0.777
CCOc1ccc([C@@H]2[C@@H](Oc3ccccc3)C(=O)N2c2cc(OC)c(OC)c(OC)c2)cc1 | > 100 | – | > 100 | > 100 | > 100 | > 100 | 3.88 | – | > 100 | > 100 | 0.0483 | – | 0.15 | 0.097 | 16 | 0.0446 | 0.0437 | – | 0.186 | 0.0975
C/C(=N\NC(=O)c1ccncc1)c1ccc2ccccc2c1O | 32 | – | 99.3 | > 100 | > 100 | > 79.6 | 10.5 | – | > 100 | 40.8 | – | – | – | – | – | – | – | – | – | –
CC(=O)Nc1ccc(Sc2ccc([N+](=O)[O-])o2)cc1 | 12.6 | – | 4.27 | 6.29 | 5.99 | 3.46 | 2.75 | – | 3.18 | 11.8 | 2.8 | – | 1.27 | 2.31 | 2.13 | 0.929 | 0.924 | – | 0.806 | 3.16

— PubChem BioAssay (NCI)
